Converted amounts (≈) assume the structure as drawn. The source made the active and inactive calls. No cut-off for these calls is given here.
Legend:
Mycobacterium kansasii [1] = assay: Antimycobacterial activity against drug resistant Mycobacterium kansasii 6509/96 assessed as minimal inhibitory concentration required for complete inhibition of mycobacterial growth incubated for 7 days; assay type: functional; settings: 6509/96, 168 h, time 7 day
[2] = test system: Mycobacterium tuberculosis; assay: Antimycobacterial activity against drug susceptible Mycobacterium tuberculosis H37Rv assessed as minimal inhibitory concentration required for complete inhibition of mycobacterial growth incubated for 21 days; assay type: functional; settings: 504 h, time 21 day
[3] = test system: Mycobacterium tuberculosis; assay: Antimycobacterial activity against drug susceptible Mycobacterium tuberculosis H37Rv assessed as minimal inhibitory concentration required for complete inhibition of mycobacterial growth incubated for 14 days; assay type: functional; settings: 336 h, time 14 day
Mycobacterium kansasii [4] = assay: Antimycobacterial activity against drug resistant Mycobacterium kansasii 6509/96 assessed as minimal inhibitory concentration required for complete inhibition of mycobacterial growth incubated for 14 days; assay type: functional; settings: 6509/96, 336 h, time 14 day
Mycobacterium avium [5] = assay: Antimycobacterial activity against drug resistant Mycobacterium avium 330/88 assessed as minimal inhibitory concentration required for complete inhibition of mycobacterial growth incubated for 14 days; assay type: functional; settings: 330/88, 336 h, time 14 day
Mycobacterium kansasii [6] = assay: Antimycobacterial activity against drug resistant Mycobacterium kansasii 6509/96 assessed as minimal inhibitory concentration required for complete inhibition of mycobacterial growth incubated for 21 days; assay type: functional; settings: 6509/96, 504 h, time 21 day
Mycobacterium avium [7] = assay: Antimycobacterial activity against drug resistant Mycobacterium avium 330/88 assessed as minimal inhibitory concentration required for complete inhibition of mycobacterial growth incubated for 21 days; assay type: functional; settings: 330/88, 504 h, time 21 day
Mycobacterium kansasii [8] = assay: Antimycobacterial activity against drug resistant Mycobacterium kansasii 235/80 assessed as minimal inhibitory concentration required for complete inhibition of mycobacterial growth incubated for 7 days; assay type: functional; settings: 235/80, 168 h, time 7 day
Mycobacterium kansasii [9] = assay: Antimycobacterial activity against drug resistant Mycobacterium kansasii 235/80 assessed as minimal inhibitory concentration required for complete inhibition of mycobacterial growth incubated for 14 days; assay type: functional; settings: 235/80, 336 h, time 14 day
Mycobacterium kansasii [10] = assay: Antimycobacterial activity against drug resistant Mycobacterium kansasii 235/80 assessed as minimal inhibitory concentration required for complete inhibition of mycobacterial growth incubated for 21 days; assay type: functional; settings: 235/80, 504 h, time 21 day
Mycobacterium avium [11] = assay: Antimycobacterial activity against drug resistant Mycobacterium avium 330/88 assessed as inhibition of mycobacterial growth at 500 uM incubated for 21 days; assay type: functional, organism-based; settings: time 21.0 day
Mycobacterium avium [12] = assay: Antimycobacterial activity against drug resistant Mycobacterium avium 330/88 assessed as inhibition of mycobacterial growth at 500 uM incubated for 14 days; assay type: functional, organism-based; settings: time 14.0 day
[13] = Selectivity index, ratio of CC50 for cytotoxicity against human HepG2 cells to MIC for antimycobacterial activity against drug susceptible Mycobacterium tuberculosis H37Rv; assay type: toxicity, cell-based; settings: read-out: Selectivity Index
HepG2 [14] = assay: Cytotoxicity against human HepG2 cells assessed as reduction in cell viability incubated overnight followed by compound washout by MTT assay; assay type: cell-based
HepG2 [15] = assay: Cytostatic activity in human HepG2 cells assessed as reduction in cell viability incubated overnight followed by compound washout and further incubated for 72 hrs in medium containing serum by MTT assay; assay type: functional, cell-based; settings: HepG2, 72 h
[16] = Selectivity index, ratio of CC50 for cytotoxicity against human HepG2 cells to MIC for antimycobacterial activity against drug susceptible Mycobacterium […]; assay type: toxicity, cell-based; settings: read-out: Selectivity Index
[17] = test system: Mycobacterium tuberculosis; assay: Inhibition of mycolic acid synthesis in Mycobacterium tuberculosis H37Ra assessed as decrease in production of trehalose monomycolates at MIC incubated for 24 hrs followed by 14C labelling and further incubated for 24 hrs by TLC based autoradiography analysis; assay type: functional, organism-based; settings: time 48.0 hrs
[18] = test system: Mycobacterium tuberculosis; assay: Inhibition of mycolic acid synthesis in Mycobacterium tuberculosis H37Ra assessed as decrease in production of trehalose dimycolates at MIC incubated for 24 hrs followed by 14C labelling and further incubated for 24 hrs by TLC based autoradiography analysis; assay type: functional, organism-based; settings: time 48.0 hrs
[19] = test system: Mycobacterium tuberculosis; assay: Inhibition of mycolic acid synthesis in Mycobacterium tuberculosis H37Ra assessed as decrease in production of standard fatty acid at MIC incubated for 24 hrs followed by 14C labelling and further incubated for 24 hrs by TLC based autoradiography analysis; assay type: functional, organism-based; settings: time 48.0 hrs
[20] = test system: Mycobacterium tuberculosis; assay: Inhibition of mycolic acid synthesis in Mycobacterium tuberculosis H37Ra assessed as decrease in production of mycolic acid at MIC incubated for 24 hrs followed by 14C addition and further incubated for 24 hrs by TLC based autoradiography analysis; assay type: functional, organism-based; settings: time 48.0 hrs
Mycobacterium avium [21] = assay: Antimycobacterial activity against drug resistant Mycobacterium avium 330/88 assessed as inhibition of mycobacterial growth at 125 uM incubated for 21 days; assay type: functional, organism-based; settings: time 21.0 day
Mycobacterium avium [22] = assay: Antimycobacterial activity against drug resistant Mycobacterium avium 330/88 assessed as inhibition of mycobacterial growth at 125 uM incubated for 14 days; assay type: functional, organism-based; settings: time 14.0 day
[23] = test system: Mycobacterium tuberculosis; assay: Antimycobacterial activity against Mycobacterium tuberculosis H37Ra carrying pMC261/pVV16 plasmid assessed as bacterial growth inhibition incubated for 28 days by drop dilution method; assay type: functional; settings: 672 h, time 28 day
Mycobacterium avium [24] = assay: Antimycobacterial activity against drug resistant Mycobacterium avium 330/88 assessed as inhibition of mycobacterial growth at 250 uM incubated for 21 days; assay type: functional, organism-based; settings: time 21.0 day
Mycobacterium avium [25] = assay: Antimycobacterial activity against drug resistant Mycobacterium avium 330/88 assessed as inhibition of mycobacterial growth at 250 uM incubated for 14 days; assay type: functional, organism-based; settings: time 14.0 day

SMILES | MIC (Mycobacterium kansasii [1]) [µM] | MIC [2] [µM] | MIC [3] [µM] | MIC (Mycobacterium kansasii [4]) [µM] | MIC (Mycobacterium avium [5]) [µM] | MIC (Mycobacterium kansasii [6]) [µM] | MIC (Mycobacterium avium [7]) [µM] | MIC (Mycobacterium kansasii [8]) [µM] | MIC (Mycobacterium kansasii [9]) [µM] | MIC (Mycobacterium kansasii [10]) [µM] | also measured
C/C(=N\NC(=O)c1ccncc1)C(=O)Nc1cccc(C(F)(F)F)c1 | 2 (≈ 0.701 µg/mL) | 0.25 (≈ 0.0876 µg/mL) | 0.125 (≈ 0.0438 µg/mL) | 4 (≈ 1.4 µg/mL) | > 1000 | 8 (≈ 2.8 µg/mL) | > 1000 |  |  |  | 
NNC(=O)c1ccncc1 [ISONIAZID] | 4 (≈ 0.549 µg/mL) | 1 (≈ 0.137 µg/mL) | 0.5 (≈ 0.0686 µg/mL) | 8 (≈ 1.1 µg/mL) | > 250 | 8 (≈ 1.1 µg/mL) | > 250 | > 250 | > 250 | > 250 | 
C/C(=N\NC(=O)c1ccncc1)C(=O)Nc1ccc(F)c(F)c1 | 2 (≈ 0.637 µg/mL) | 0.5 (≈ 0.159 µg/mL) | 0.25 (≈ 0.0796 µg/mL) | 4 (≈ 1.27 µg/mL) |  | 8 (≈ 2.55 µg/mL) |  |  |  |  | Activity (Mycobacterium avium [11]): inactive; Activity (Mycobacterium avium [12]): inactive
C/C(=N\NC(=O)c1ccncc1)C(=O)Nc1ccc(OC(F)F)cc1 | 2 (≈ 0.697 µg/mL) | 0.5 (≈ 0.174 µg/mL) | 0.25 (≈ 0.0871 µg/mL) | 4 (≈ 1.39 µg/mL) | > 1000 | 8 (≈ 2.79 µg/mL) | > 1000 |  |  |  | 
C/C(=N\NC(=O)c1ccncc1)C(=O)Nc1ccc(Br)cc1 | 4 (≈ 1.44 µg/mL) | 0.125 (≈ 0.0451 µg/mL) | 0.06 (≈ 0.0217 µg/mL) | 8 (≈ 2.89 µg/mL) | 250 (≈ 90.3 µg/mL) | 16 (≈ 5.78 µg/mL) | 250 (≈ 90.3 µg/mL) | 16 (≈ 5.78 µg/mL) | 16 (≈ 5.78 µg/mL) | 16 (≈ 5.78 µg/mL) | selectivity ratio [13]: > 400; IC50 (HepG2 [14]): > 50 µM; IC50 (HepG2 [15]): > 50 µM; selectivity ratio [16]: > 3.12
C/C(=N\NC(=O)c1ccncc1)C(=O)Nc1cc(C(F)(F)F)cc(C(F)(F)F)c1 | 32 (≈ 13.4 µg/mL) | 1 (≈ 0.418 µg/mL) | 1 (≈ 0.418 µg/mL) | 32 (≈ 13.4 µg/mL) | > 1000 | 32 (≈ 13.4 µg/mL) | > 1000 |  |  |  | 
C/C(=N\NC(=O)c1ccncc1)C(=O)Nc1ccc(OC(F)(F)F)cc1 | 2 (≈ 0.733 µg/mL) | ≤ 0.03 | ≤ 0.03 | 2 (≈ 0.733 µg/mL) |  | 4 (≈ 1.47 µg/mL) |  | 8 (≈ 2.93 µg/mL) | 8 (≈ 2.93 µg/mL) | 16 (≈ 5.86 µg/mL) | selectivity ratio [13]: > 1670; inhibition [17]: Active; IC50 (HepG2 [14]): > 50 µM; inhibition [18]: Active; inhibition [19]: inactive; inhibition [20]: Active; Activity (Mycobacterium avium [21]): inactive; Activity (Mycobacterium avium [22]): inactive; IC50 (HepG2 [15]): > 50 µM; MIC [23]: 0.3 µM (≈ 0.11 µg/mL); selectivity ratio [16]: > 12.5
C/C(=N\NC(=O)c1ccncc1)C(=O)Nc1ccc(SC(F)(F)F)cc1 | 4 (≈ 1.53 µg/mL) | 0.5 (≈ 0.191 µg/mL) | 0.5 (≈ 0.191 µg/mL) | 4 (≈ 1.53 µg/mL) |  | 4 (≈ 1.53 µg/mL) |  |  |  |  | Activity (Mycobacterium avium [24]): inactive; Activity (Mycobacterium avium [25]): inactive
C/C(=N\NC(=O)c1ccncc1)C(=O)Nc1cccc(Br)c1 | 4 (≈ 1.44 µg/mL) | 0.125 (≈ 0.0451 µg/mL) | 0.125 (≈ 0.0451 µg/mL) | 8 (≈ 2.89 µg/mL) | > 1000 | 8 (≈ 2.89 µg/mL) | > 1000 |  |  |  | 
C/C(=N\NC(=O)c1ccncc1)C(=O)Nc1ccc(F)cc1 | 2 (≈ 0.601 µg/mL) | 0.25 (≈ 0.0751 µg/mL) | 0.25 (≈ 0.0751 µg/mL) | 4 (≈ 1.2 µg/mL) | > 250 | 8 (≈ 2.4 µg/mL) | > 250 | 62.5 (≈ 18.8 µg/mL) | 125 (≈ 37.5 µg/mL) | 250 (≈ 75.1 µg/mL) | selectivity ratio [13]: > 200; IC50 (HepG2 [14]): > 50 µM; IC50 (HepG2 [15]): > 50 µM; selectivity ratio [16]: > 625
C/C(=N\NC(=O)c1ccncc1)C(=O)Nc1cc(Cl)c(Cl)c(Cl)c1 | 16 (≈ 6.17 µg/mL) | 1 (≈ 0.386 µg/mL) | 0.5 (≈ 0.193 µg/mL) | 16 (≈ 6.17 µg/mL) | > 250 | 32 (≈ 12.3 µg/mL) | > 250 | 62.5 (≈ 24.1 µg/mL) | 125 (≈ 48.2 µg/mL) | 250 (≈ 96.4 µg/mL) | 
